The results in this text go back to patent publication US8010296B2, “Apparatus and method for removing non-discriminatory indices of an indexed dataset” (Drexel University, priority 2002, dated 2011).

The series concerns rat liver. Particulars: treated rats, liver samples; selection by visual inspection and ALT measurement. The procedure: Forty-eight polypeptide spectra were prepared from rat liver samples under four toxicological conditions (G=4).
While it was desirable that samples from each group be completely separated from those of other groups, it was especially important that samples from Group 4 (high toxicity) were separated from the others.

On to `S=C=Nc1cccc2ccccc12` [Alpha-naphthyl Isothiocyanate (ANIT), Alpha-naphthyl Isothiocyanate], for which the Toxicity result was “Mild”.

With `ClC(Cl)(Cl)Cl` [Carbon Tetrachloride (CCl4), Carbon Tetrachloride], the Toxicity entry is “Mild”.
